Consider 24 compounds from US10315996B2, “ROR gamma (RORγ) modulators” (LEAD PHARMA HOLDING B.V., priority 2015, dated 2019).

Each structure is given as a SMILES string.

This experiment has as its target T1, RORγ (Homo sapiens, UniProt P51449).
T1 construct: expressed in transfected cells; host or cells: 293FT cells (Invitrogen), expression vector pFN26A (Promega)
T1 sequence (P51449 269-508 limits assumed): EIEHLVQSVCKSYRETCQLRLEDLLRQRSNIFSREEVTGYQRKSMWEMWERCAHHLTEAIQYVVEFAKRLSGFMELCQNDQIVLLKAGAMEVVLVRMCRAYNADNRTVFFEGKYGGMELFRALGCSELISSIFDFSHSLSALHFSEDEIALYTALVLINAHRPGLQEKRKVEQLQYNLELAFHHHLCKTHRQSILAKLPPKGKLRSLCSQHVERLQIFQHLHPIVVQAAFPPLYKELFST
In words: RORγ GAL4 reporter gene assay. It is filed as cell-based. To be noted: inhibition of RORγ activity, GAL4-RORγ-LBD luciferase reporter in 293FT cells, overnight incubation; read-out: mean pIC50 (converted). As to the method: Example inhibitors 1-166 were tested for their ability to inhibit RORγ activity in a RORγ GAL4 reporter gene assay. The assay procedure and results are described below.
RORγ GAL4 Reporter Gene Assay Description
A GAL4 one-hybrid reporter system employing luciferase readout was established to determine inhibition of RORγ in 293FT cells. The RORγ ligand-binding domain (LBD) was fused to the yeast GAL4 DNA binding domain (DBD) and placed under the control of the human cytomegalovirus (CMV) immediate early promoter, using expression vector pFN26A (Promega) and standard recombinant DNA cloning methods. To serve as a control in the assay, a similar vector was generated in which the GAL4-DBD was fused to Herpes simplex virus protein 16 (VP16), a constitutive transcriptional activator.
To monitor the inhibitory effect of compounds on RORγ, a transcriptional reporter construct was used. The pGL4.35 vector (Promega) contains nine copies of the GAL4 Upstream Activator Sequence (UAS). This sequence drives the transcription of the luciferase reporter gene luc2P in response to binding of a fusion protein containing the GAL4 DNA binding domain, as for example expressed by the GAL4-RORγ-LBD and GAL4-VP16 expression vectors described above. To allow a GAL4 fusion protein to drive the expression of the luciferase reporter, the pGL4.35 expression vector and the appropriate GAL4 fusion protein expression vector were bulk transfected in the 293FT cells using standard transfection techniques.
The day after transfection, cells were plated into 96 well plates, test compound was added and the plates were incubated overnight. Subsequently, the firefly luciferase activity was quantified using luciferase detection reagent and luminescence readout.
Detailed Assay Description
293FT cells (Invitrogen) were transfected with a GAL4 fusion protein expression vector (as described above) and the transcriptional reporter construct (pGL4.35, Promega). 60 μL of TransIT-293 transfection reagent (Mirus Bio) was added drop wise to 1500 μl Opti-MEM I Reduced Serum Medium (Invitrogen) and incubated at room temperature (RT) for 5 to 20 minutes. 1500 μL of this reagent mixture was added to 5 μg of GAL4 fusion protein expression vector and 5 μg of the transcriptional reporter construct, and incubated at RT for 20 minutes.
To harvest 293FT cells from a T75 flask, first the culture medium was taken off the cells. Subsequently, the cells were washed with Phosphate Buffered Saline (PBS) (Lonza), after which the PBS was removed. To dissociate the cells, 1 ml of TrypLE Express (Invitrogen) was added to the flask, followed by incubation at RT until the cells visually started to detach. Cells were collected in 5 mL of assay medium (DMEM culture medium (Lonza), 10% dialyzed FBS (Invitrogen) and Pen/Strep (Lonza)) to achieve a single cell suspension. 10×10^6 cells were spun down and re-suspended in 10 mL of assay medium. Subsequently, the cell suspension was added to the transfection mix tube, and then transferred as a whole to a T75 flask (Greiner), followed by overnight (16-24 hours) incubation at 37° C. and 5% CO2.
For compound screening, the cells were harvested (as described above) and counted. 13×10^6 cells were spun down, the supernatant was aspirated and the cells were re-suspended in 17.3 mL of assay medium obtaining a cell suspension of 0.75×10^6 cells/mL. 80 μL of cell suspension (60,000 cells) was plated per well into a white, flat bottom, tissue culture treated, 96 well screening plates (Greiner).
Test compounds were diluted, starting from a 10 mM dimethylsulfoxide (DMSO) stock solution, to serial dilutions in DMSO at 500× the final test concentration. Subsequently, these solutions were diluted to 5× the final test concentration in two 10-fold-dilution steps in assay medium. The final DMSO concentration of the 5× test compound solution was 1%. […]
Take `CC(C)(NC(=O)c1ccc(NC(=O)Cc2ccc(S(=O)(=O)CC3CC3)cc2)cc1)c1cccnc1` [Example 68, 4-[2-(4-cyclopropylmethanesulfonylphenyl)acetamido]-N-[2-(pyridin-3-yl)propan-2-yl]benzamide]: the IC50 is at most 1000 nM.

Consider `O=C(Cc1ccc(S(=O)(=O)CC2CC2)cc1)Nc1ccc(C(=O)N(c2cccnc2)C2CC2)cc1` [Example 143, N-cyclopropyl-4-[2-(4-cyclopropylmethanesulfonylphenyl)acetamido]-N-(pyridin-3-yl)benzamide], for which the IC50 was at most 100 nM.

Take `CCN(C(=O)c1ccc(NC(=O)Cc2ccc(S(=O)(=O)CC3CC3)cc2)cc1C)c1ccccc1Cl` [Example 166, N-(2-chlorophenyl)-4-[2-(4-cyclopropylmethanesulfonylphenyl)acetamido]-N-ethyl-2-methylbenzamide]: the IC50 is at most 10 nM.

As for `O=C(Cc1ccc(S(=O)(=O)CC2CC2)cc1)Nc1ccc(C(=O)N(c2ccccn2)C2CCOC2)cc1` (stereo not drawn) [Example 136, 4-[2-(4-cyclopropylmethanesulfonylphenyl)acetamido]-N-(oxolan-3-yl)-N-(pyridin-2-yl)benzamide], the IC50 was at most 100 nM.

On to `O=C(Cc1ccc(S(=O)(=O)CC2CC2)cc1)Nc1ccc(C(=O)N2CCCC2c2ccccc2)cc1` (stereo not drawn) [Example 35, 2-(4-cyclopropylmethanesulfonylphenyl)-N-[4-(2-phenylpyrrolidine-1-carbonyl)phenyl]acetamide], for which the IC50 is at most 100 nM.

With `O=C(Cc1ccc(S(=O)(=O)NC2CC2)cc1)Nc1ccc(C(=O)N(CC(F)(F)F)c2ccccc2)cc1` [Example 109, 4-{2-[4-(cyclopropylsulfamoyl)phenyl]acetamido}-N-phenyl-N-(2,2,2-trifluoroethyl) benzamide], the IC50 is at most 10 nM.

For `CCOC(=O)c1csc(C2CCCN2C(=O)c2ccc(NC(=O)Cc3ccc(S(=O)(=O)CC4CC4)cc3)cc2)n1` (stereo not drawn) [Example 38, ethyl 2-(1-{4-[2-(4-cyclopropylmethanesulfonylphenyl)acetamido]benzoyl}pyrrolidin-2-yl)-1,3-thiazole-4-carboxylate], the IC50 was at most 1000 nM.

As to `O=C(Cc1ccc(S(=O)(=O)CC2CC2)cc1)Nc1ccc(C(=O)N(c2ccccc2)C2COC2)cc1` [Example 149, 4-[2-(4-cyclopropylmethanesulfonylphenyl)acetamido]-N-(oxetan-3-yl)-N-phenylbenzamide], the IC50 was at most 10 nM.

In the case of `CCOC(=O)CN(Cc1ccccc1)C(=O)c1ccc(NC(=O)Cc2ccc(S(=O)(=O)CC3CC3)cc2)cc1` [Example 32, ethyl 2-(N-benzyl-1-{4-[2-(4-cyclopropylmethanesulfonylphenyl)acetamido]phenyl}formamido)acetate], the IC50 is at most 10 nM.

On to `CN(CCc1ccccc1)C(=O)c1ccc(NC(=O)Cc2ccc(S(=O)(=O)CC3CC3)cc2)cc1` [Example 10, 4-[2-(4-cyclopropylmethanesulfonylphenyl)acetamido]-N-methyl-N-(2-phenylethyl)benzamide], for which the IC50 is at most 100 nM.

Turning to `CC(N(C(=O)c1ccc(NC(=O)Cc2ccc(S(=O)(=O)NC3CC3)cc2)cc1)c1ccccc1)C(F)(F)F` (stereo not drawn) [Example 148, 4-{2-[4-(cyclopropylsulfamoyl)phenyl]acetamido}-N-phenyl-N-(1,1,1-trifluoropropan-2-yl)benzamide], the IC50 was at most 100 nM.

On to `Cc1ccc(N(C(=O)c2ccc(NC(=O)Cc3ccc(S(=O)(=O)CC4CC4)nc3)cc2)C(C)(C)CO)cc1` [Example 161, 4-[2-(6-cyclopropylmethanesulfonylpyridin-3-yl)acetamido]-N-(1-hydroxy-2-methylpropan-2-yl)-N-(4-methylphenyl)benzamide], for which the IC50 is at most 100 nM.

Turning to `CC(C)(CN1CCOCC1)NC(=O)c1ccc(NC(=O)Cc2ccc(S(=O)(=O)CC3CC3)cc2)cc1` [Example 60, 4-[2-(4-cyclopropylmethanesulfonylphenyl)acetamido]-N-[2-methyl-1-(morpholin-4-yl)propan-2-yl]benzamide], the IC50 is at most 1000 nM.

For the compound `N#CC(NC(=O)c1ccc(NC(=O)Cc2ccc(S(=O)(=O)CC3CC3)cc2)cc1)c1ccccc1` (stereo not drawn) [Example 73, N-[cyano(phenyl)methyl]-4-[2-(4-cyclopropylmethanesulfonylphenyl)acetamido]benzamide], the IC50 is at most 1000 nM.

Regarding `CCCN(Cc1ccccc1)C(=O)c1ccc(NC(=O)Cc2ccc(S(=O)(=O)CC3CC3)cc2)cc1` [Example 21, N-benzyl-4-[2-(4-cyclopropylmethanesulfonylphenyl)acetamido]-N-propylbenzamide], the IC50 was at most 10 nM.

In the case of `CC(C)(C)C1COc2ccccc2N1C(=O)c1ccc(NC(=O)Cc2ccc(S(=O)(=O)CC3CC3)cc2)cc1` (stereo not drawn) [Example 121, N-[4-(3-tert-butyl-3,4-dihydro-2H-1,4-benzoxazine-4-carbonyl)phenyl]-2-(4-cyclopropylmethanesulfonylphenyl)acetamide], the IC50 is at most 100 nM.

Take `CC(C)(C)N(C(=O)c1ccc(NC(=O)Cc2ccc(S(=O)(=O)CC3CC3)nc2)cc1)c1ccccc1` [Example 158, N-tert-butyl-4-[2-(6-cyclopropylmethanesulfonylpyridin-3-yl)acetamido]-N-phenylbenzamide]: the IC50 was at most 10 nM.

Take `CCN(C(=O)c1ccc(NC(=O)Cc2ccc(S(=O)(=O)CC3CC3)cc2)cc1)c1cccc(C)c1` [Example 31, 4-[2-(4-cyclopropylmethanesulfonylphenyl)acetamido]-N-ethyl-N-(3-methylphenyl)benzamide]: the IC50 is at most 10 nM.

For `CCNC(=O)c1ccc(NC(=O)Cc2ccc(S(=O)(=O)CC3CC3)cc2)cc1` [Example 2, 4-[2-(4-cyclopropylmethanesulfonylphenyl)acetamido]-N-ethylbenzamide], the IC50 was at most 1000 nM.

Turning to `CCCN(C(=O)c1ccc(NC(=O)Cc2ccc(S(=O)(=O)CC3CC3)cc2)cc1)c1cc(C)nn1C` [Example 86, 4-[2-(4-cyclopropylmethanesulfonylphenyl)acetamido]-N-(1,3-dimethyl-1H-pyrazol-5-yl)-N-propylbenzamide], the IC50 is at most 10 nM.

Turning to `O=C(Cc1ccc(S(=O)(=O)CC2CC2)cc1)Nc1ccc(C(=O)N2CCCCC2CN2CCOCC2)cc1` (stereo not drawn) [Example 39, 2-(4-cyclopropylmethanesulfonylphenyl)-N-{4-[2-(morpholin-4-ylmethyl)piperidine-1-carbonyl]phenyl}acetamide], the IC50 is at most 1000 nM.

As to `O=C(Cc1ccc(S(=O)(=O)CC2CC2)cc1)Nc1ccc(C(=O)N2CCc3ccccc3C2)cc1` [Example 55, 2-(4-cyclopropylmethanesulfonylphenyl)-N-[4-(1,2,3,4-tetrahydroisoquinoline-2-carbonyl)phenyl]acetamide], the IC50 was at most 100 nM.

As to `O=C(Cc1ccc(S(=O)(=O)CC2CC2)cc1)Nc1ccc(C(=O)N(Cc2ccccc2)Cc2ccccc2)cc1` [Example 12, N,N-dibenzyl-4-[2-(4-cyclopropylmethanesulfonylphenyl)acetamido]benzamide], the IC50 was at most 100 nM.

`CCN(C(=O)c1ccc(NC(=O)Cc2ccc(S(=O)(=O)CC3CC3)cc2)cc1C)c1cccc(C)c1C` [Example 164, 4-[2-(4-cyclopropylmethanesulfonylphenyl)acetamido]-N-(2,3-dimethylphenyl)-N-ethyl-2-methylbenzamide]: the IC50 is at most 10 nM.
